US12152012B2, “BRAG2 inhibitors and applications thereof” (CENTRE NATIONAL DE LA RECHERCHE SCIENTIFIQUE, priority 2018, dated 2024)
Entries after “also recorded” stand apart in the source; their conditions may differ.

Key:
[1] = Stability in aqueous solution / PBS (mass spectroscopy); assay type: physicochemical; settings: for Chemical stability in aqueous solution: after a few days in aqueous solution; for Stability in PBS by mass spectroscopy: dissolved in PBS, within 72 hours
BRAG2 (BRAG2^Sec7PH) = biological target: T1, BRAG2 (BRAG2^Sec7PH) (Homo sapiens, UniProt Q6DN90); test: Nucleotide exchange kinetics on liposomes, activation of myristoylated Arf1; assay type: biochemical
T1 construct: human BRAG2^Sec7 (390-594) and BRAG2^Sec7PH (390-811); made in house
T1 sequence (Q6DN90 512-933): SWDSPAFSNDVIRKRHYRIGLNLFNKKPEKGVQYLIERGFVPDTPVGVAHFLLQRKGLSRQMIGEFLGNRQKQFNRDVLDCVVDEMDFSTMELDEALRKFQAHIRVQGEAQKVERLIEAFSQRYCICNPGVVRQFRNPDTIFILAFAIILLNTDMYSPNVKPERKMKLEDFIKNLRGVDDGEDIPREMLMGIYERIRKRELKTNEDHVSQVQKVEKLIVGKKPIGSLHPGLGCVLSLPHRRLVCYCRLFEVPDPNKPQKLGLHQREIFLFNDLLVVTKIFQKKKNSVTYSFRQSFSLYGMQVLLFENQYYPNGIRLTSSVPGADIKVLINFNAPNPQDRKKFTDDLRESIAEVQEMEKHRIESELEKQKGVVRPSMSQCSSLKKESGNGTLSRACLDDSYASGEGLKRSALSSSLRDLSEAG
Procedure: The effect of Bragsin1 on the GEF efficiency of representative human ArfGEFs was evaluated by fluorescence kinetics using highly purified recombinant Arf GTPases and ArfGEFs. In a first series of assays, the Sec7 domains of BIG1, a Golgi ArfGEF, and of ARNO, EFA6a and BRAG2, which function at the plasma membrane, were used. When tested in solution, Bragsin1 had no effect on the activation of Arf1 by any of these Sec7 domains (FIGS. 2a and 14). Separately, we reconstituted the activation of myristoylated Arf1 by the same ArfGEFs on liposomes using ArfGEF constructs that contain a membrane-binding domain (DCB-HUS domain for BIG1, PH domains for the other GEFs). […] BRAG2 activates several Arf isoforms, including the plasma membrane-located Arf6 isoform. […] Bragsin1 and Bragsin2 have the same IC50 towards BRAG2 ([…]) according to dose-response analysis, confirming that Bragsin1 and Bragsin2 can be used interchangeably (FIG. 2d). The specific inhibition of BRAG2 by Bragsin in vitro predicts that BRAG2 silencing by siRNA should yield the same phenotype as treatment by the small molecule. Silencing of BRAG2 induced the redistribution of TGN46 into tubular or punctate structures, which phenocopied the effects induced by Bragsin (FIGS. 2e, 17 and 18). […] Silencing of ARNO, which is located at the plasma membrane, had no effect on TGN46 distribution. Overexpression of BRAG2-mCherry rescued the dispersion of the TGN46 structure induced by Bragsin, which is consistent with the silencing experiments (FIG. 2f). Bragsin is a specific inhibitor of the ArfGEF BRAG2 in vitro and in cells according to these experiments. These oexperiments identify a mechanism of inhibition that requires the membrane to manifests itself.
Bovine Δ17Arf1 and human Δ13Arf6, full-length myristoylated Arf1 and Arf6, human BRAG2^Sec7 (390-594) and BRAG2^Sec7PH (390-811), human EFA6^Sec7 (527-727) and EFA6^Sec7PHCt (527-1024), ARNO^Sec7 (50-256), BIG1^Sec7 (691-889), BIG1^DcbHusSec7 (2-888) and ARNO^Sec7PH (50-399) were expressed and purified as in (Benabdi, S. et al. Family-wide Analysis of the Inhibition of Arf Guanine Nucleotide Exchange Factors with Small Molecules: Evidence of Unique Inhibitory Profiles. Biochemistry 56, 5125-5133 (2017)) and references therein. BRAG2^Sec7PH mutants were purified as the wild type protein. Purification of human full-length Rac1 carrying a 6xHis tag in C-terminus and human TRIO^DH1PH1 (1232-1550) was described in (Peurois, F. et al. Characterization of the activation of small GTPases by their GEFs on membranes using artificial membrane tethering. Biochem J 474, 1259-1272 (2017)).
Lipids (of natural origin) were from Avanti Polar Lipids, except NBD-PE from Sigma. Liposomes were prepared as described in (Aizel, K. et al. Integrated conformational and lipid-sensing regulation of endosomal ArfGEF BRAG2. PLOS Biol 11, e1001652 (2013)) and extruded at 0.2 μm. For the Arf GEF specificity studies, liposomes contained 48% phosphatidylcholine (PC), 20% phosphatidylethanolamine (PE), 30% phosphatidylserine (PS) and 2% phosphatidylinositol-4,5-bisphosphate (PIP2). For Rac activation assay, liposomes contained 43% PC, 20% PE, 10% PS, 20% cholesterol, 2% PIP2, 5% NiNTA lipids and 0.2% NBD-PE. To exclude aggregation or disruption of the liposomes, their size distribution was controlled before and after experiments by dynamic light scattering as described in (Benabdi, S. et al. Biochemistry 56, 5125-5133 (2017)). Dose-response and flotation assays were carried out with liposomes containing 37.9% PC, 20% PE, 20% PS, 2% PIP2, 20% cholesterol and 0.1% NBD-PE. Flotation assays were carried out as in 18.
Nucleotide exchange kinetics were monitored by tryptophan fluorescence with excitation/emission wavelengths of 292/340 nm using a Cary Eclipse fluorimeter (Varian) at 37° C. and under continuous stirring as described in ^50,51. […]

With `Cc1ccc2oc(C(F)(F)F)cc(=O)c2c1[N+](=O)[O-]` [Bragsin1, 6-methyl-5-nitro-2-(trifluoromethyl)-4H-chromen-4-one] the “Chemical stability in aqueous solution” value [1] was “chemically unstable”, the “Stability in PBS by mass spectroscopy” value [1] was “slowly decomposed” and the “Inhibition of BRAG2 in the presence of liposomes” value (BRAG2 (BRAG2^Sec7PH); 50 μM compound vs DMSO, myristoylated Arf1, liposomes) was “strongly inhibited; also recorded: specifically inhibits”. The “Activity towards BRAG2 after storage” value (BRAG2 (BRAG2^Sec7PH); stock solution in DMSO kept for several months) was “lost activity”.
In the case of `COc1ccc2oc(C(F)(F)F)cc(=O)c2c1[N+](=O)[O-]` [Bragsin2, 6-methoxy-5-nitro-2-(trifluoromethyl)-4H-chromen-4-one], the “Chemical stability in aqueous solution” value [1] is reported as “resistant to hydration and stable”, the “Stability in PBS by mass spectroscopy” value [1] is reported as “remained stable” and the “Inhibition of BRAG2 on liposomes that contain PIP2 compared to PS as sole negatively charged lipid” value (BRAG2 (BRAG2^Sec7PH); lipid composition of liposomes varied) is reported as “more efficiently; also recorded: stronger”.
